Reference: publication PMC4212247 (Neoplasia (New York, N.Y.), 2014)

Target: p70 S6 kinase (S6K1) (Homo sapiens, UniProt P23443)
Assay: in vitro kinase assay with recombinant S6K1, peptide substrate and […] ATP
Format: biochemical

Sequence of p70 S6 kinase (S6K1) (P23443 24-525): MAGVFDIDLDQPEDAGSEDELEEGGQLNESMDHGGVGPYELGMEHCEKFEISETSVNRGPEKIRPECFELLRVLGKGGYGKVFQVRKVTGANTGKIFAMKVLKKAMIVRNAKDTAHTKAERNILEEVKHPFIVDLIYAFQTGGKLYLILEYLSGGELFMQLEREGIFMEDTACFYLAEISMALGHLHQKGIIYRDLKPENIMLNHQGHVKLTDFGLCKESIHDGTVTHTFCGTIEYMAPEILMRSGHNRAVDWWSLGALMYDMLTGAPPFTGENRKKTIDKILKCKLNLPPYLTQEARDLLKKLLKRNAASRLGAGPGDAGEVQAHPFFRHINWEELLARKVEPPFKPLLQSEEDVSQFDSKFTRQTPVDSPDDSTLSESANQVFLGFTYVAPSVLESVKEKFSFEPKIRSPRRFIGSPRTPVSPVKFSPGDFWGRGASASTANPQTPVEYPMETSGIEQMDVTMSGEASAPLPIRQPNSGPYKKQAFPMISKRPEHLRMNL

Row | IC50 | SMILES
1 | ~80 µM | C/C(O)=C(\C#N)C(=O)Nc1ccc(C(F)(F)F)cc1 [A77 1726]
2 | ~55 µM | Cc1oncc1C(=O)Nc1ccc(C(F)(F)F)cc1 [leflunomide]
